This is an account of results in US20080275058A1, “N-Substituted-1H-Quinoline-2,4-Diones, Preparation Method Thereof, And Pharmaceutical Composition Containing The Same” (KOREA RESEARCH INSTITUTE OF CHEMICAL TECHNOLOGY, priority 2005, published 2008).

Like-named read-outs stand apart in the source and are kept apart here.

The target in data set [1] is T1, 5-HT6 receptors (Homo sapiens, UniProt P50406). The following applies: background literature, cited from earlier work; for affinity at 5-HT6 receptors, in words: antipsychotics.
In data set [2] the target is T1, 5-HT6 receptors. Conditions: human 5-HT6 receptors, background literature; cited from earlier work.
The conditions of data set [3]: cited from earlier work.
For data set [4] the following is noted: frontal cortex and dorsal hippocampus; cited from earlier work.
Data set [5] concerns the target T2, hD2L (Homo sapiens, UniProt P14416).
T2 construct: purchased BioSignal Packard Inc., Montreal, Canada
Kind of data set: Radioligand binding, dopamine D2 ([3H]spiperone). Conditions: Table 4; [3H]spiperone 1 nM; read-out: Binding affinity, IC50 (nM) D2. Summed up:
(§1)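 IC50 values come from nonlinear fits of three displacement experiments, each using 7-8 test concentrations in duplicate. D2L and D3 membranes were labelled with 1 nM [3H]spiperone, and D4.2 with 0.06 nM [3H]YM-09151-2. All assays used pH 7.4 Tris buffers, with the D3 buffer adding 120 mM NaCl, KCl and CaCl2.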

In data set [6] the target is T3, 5-HT2c (Homo sapiens, UniProt P28335).
T3 construct: purchased Euroscreen/BioSignal Packard Inc
T3 sequence (P28335 33-458): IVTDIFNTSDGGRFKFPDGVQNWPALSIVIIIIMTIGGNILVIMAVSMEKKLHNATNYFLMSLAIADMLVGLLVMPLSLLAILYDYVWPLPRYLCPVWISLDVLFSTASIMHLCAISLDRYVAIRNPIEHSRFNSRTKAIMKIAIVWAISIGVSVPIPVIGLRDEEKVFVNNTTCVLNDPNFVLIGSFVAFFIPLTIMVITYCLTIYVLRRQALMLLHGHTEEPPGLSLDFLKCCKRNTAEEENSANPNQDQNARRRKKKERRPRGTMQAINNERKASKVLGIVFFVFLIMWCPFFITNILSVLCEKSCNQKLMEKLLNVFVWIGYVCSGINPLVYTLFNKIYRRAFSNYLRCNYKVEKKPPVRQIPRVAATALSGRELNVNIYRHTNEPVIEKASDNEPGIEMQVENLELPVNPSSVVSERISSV
The data set is described as follows: Radioligand binding, 5-HT2c ([3H]Mesulergine). Conditions: Table 4; [3H]Mesulergine 1 nM; read-out: Binding affinity, IC50 (nM) 5-HT2c.

For data set [7], the system named is rats. Conditions: water maze; cited from earlier work.
Data set [8] addresses T4, hD4.2 receptor (Homo sapiens, UniProt P21917, DEL265-296).
T4 construct: purchased BioSignal Packard Inc., Montreal, Canada
T4 sequence (P21917 with tags, fused parts or gaps DEL265-296): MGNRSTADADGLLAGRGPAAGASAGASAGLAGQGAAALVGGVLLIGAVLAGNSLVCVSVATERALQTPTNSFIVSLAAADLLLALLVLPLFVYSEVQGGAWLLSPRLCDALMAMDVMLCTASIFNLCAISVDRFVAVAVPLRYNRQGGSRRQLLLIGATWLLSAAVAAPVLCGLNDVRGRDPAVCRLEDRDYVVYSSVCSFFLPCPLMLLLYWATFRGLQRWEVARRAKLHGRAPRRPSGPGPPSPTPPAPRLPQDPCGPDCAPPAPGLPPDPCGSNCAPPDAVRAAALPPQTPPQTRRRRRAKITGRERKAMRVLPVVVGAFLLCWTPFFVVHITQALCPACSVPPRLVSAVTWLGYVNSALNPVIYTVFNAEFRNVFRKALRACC
Kind of data set: Radioligand binding, dopamine D4 ([3H]YM-09151-2). The following applies: Table 4; [3H]YM-09151-2 0.06 nM; read-out: Binding affinity, IC50 (nM) D4. Summed up:
as §1

In data set [9] the test system is rat. Conditions: cited from earlier work; for anticonvulsant activity: background literature.
The test system of data set [10] is rats. The data set is described as follows: Methamphetamine-induced disruption of prepulse inhibition (PPI) in rats. The format is in vivo, rat. As to the method: To assay antipsychotic properties of the compounds according to the invention, prepulse inhibition (PPI) of acoustic startle in animals was performed. Startle response was measured using SR-LAB startle chamber (San Diego Instruments, San Diego, USA). The animal enclosure was housed in a ventilated and sound-attenuated startle chamber with 60 dB ambient noise level, and consisted of a Plexiglas cylinder 40 mm in diameter on a platform, connected to a piezoelectric accelerometer which detects and transducer motion within the cylinder. Acoustic noise bursts were presented through a loudspeaker mounted 24 ? above the animal. […] Each startle session began with a 5-min acclimatization period in the chamber to 68 dB background noises. The test session consisting of the following four different trial types was carried for all experiments: a 40 ms broadband 120 dB burst (P; pulse alone trial), P preceded 100 ms earlier by a 20 ms noise burst 10 dB above background (pP; prepulse+pulse trial), a 40 ms broadband 78 dB burst (prepulse alone trial), and a no stimulus trial (background). Eight trials of each type were presented in a pseudorandom order (total32 trials) with an average interval of 15 sec. separating each trial. An extra 5 pulse-alone trials were presented at the beginning and end of each test session, but were not used in the calculation of PPI values. PPI was defined as the percent reduction in startle amplitude in the presence of prepulse compared to the amplitude in the absence of the prepulse using the following Math Equation 1. […] Differences were considered significant at P<0.05. Statistical analyses were conducted using SigmaStat software (SigmaStat, Jandel Co., San Rafael, Calif.). The data were expressed as means±SEM.

The test system of data set [11] is rats. The following applies: cited from earlier work.
The subject of data set [12] is rats. The following applies: cited from earlier work. This is another data set of the same source.
For data set [13], the target named is T5, 5-HT1a (Homo sapiens, UniProt P08908).
T5 construct: purchased Euroscreen/BioSignal Packard Inc
T5 sequence (P08908 1-422): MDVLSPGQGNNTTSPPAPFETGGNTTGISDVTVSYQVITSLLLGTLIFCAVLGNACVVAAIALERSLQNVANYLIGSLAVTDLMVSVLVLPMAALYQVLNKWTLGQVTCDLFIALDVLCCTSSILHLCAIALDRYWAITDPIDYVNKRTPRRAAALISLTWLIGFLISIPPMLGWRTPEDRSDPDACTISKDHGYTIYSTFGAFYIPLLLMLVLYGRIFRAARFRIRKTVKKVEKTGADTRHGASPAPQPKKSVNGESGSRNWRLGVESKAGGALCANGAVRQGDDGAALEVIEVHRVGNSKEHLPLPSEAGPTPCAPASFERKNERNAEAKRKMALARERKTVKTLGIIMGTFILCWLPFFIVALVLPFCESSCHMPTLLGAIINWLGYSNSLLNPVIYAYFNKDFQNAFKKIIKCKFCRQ
Kind of data set: Radioligand binding, 5-HT1a ([3H]8-OH-DPAT). The following applies: Table 4; [3H]8-OH-DPAT 0.5 nM; read-out: Binding affinity, IC50 (nM) 5-HT1a. Summed up:
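Per manufacturer method: commercial membranes incubated with radioligand and test compound, bound label counted.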

Data set [14] can be described thus: Rotarod deficit in mice. Conditions: mouse, in vivo, po, unit printed as image, read-out: TD50 (median neurotoxic dose). The format is in vivo, mouse. Summed up:
(§2)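 Compounds suspended in 3% Tween 80 were given p.o. to mice 60 min before testing. Rotarod deficit (%) was the proportion of animals falling within 1 min from a 1 inch knurled rod turning at 6 rpm, scored at 60, 90 and 120 min after dosing.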
Background: In the rotarod test animals must keep their balance on a rotating rod.

The test system of data set [15] is mice. The data set is described as follows: Rotarod deficit in mice. The data set is classed as in vivo, mouse. Summed up:
as §2

In data set [16] the target is D1 (Homo sapiens, UniProt P21728). Kind of data set: Radioligand binding, dopamine D1. Conditions: Table 4; read-out: Binding affinity, IC50 (nM) D1.
Data set [17] concerns the target T6, 5-HT7 (Homo sapiens, UniProt P34969).
T6 construct: purchased Euroscreen/BioSignal Packard Inc
Kind of data set: Radioligand binding, 5-HT7 ([3H]LSD). Conditions: Table 4; [3H]LSD 3 nM; read-out: Binding affinity, IC50 (nM) 5-HT7.

For data set [18], the target named is T7, Human serotonin 5-HT6 receptor (Homo sapiens, UniProt P50406).
T7 construct: made in house; host or cells: insect Sf21 cells (baculovirus vector BacPAK8)
The data set is described as follows: [3H]LSD binding assay on cloned 5-HT6 receptor membranes.

Data set [19] has as its target T8, hD3 (Homo sapiens, UniProt P35462).
T8 construct: purchased BioSignal Packard Inc., Montreal, Canada
The data set is described as follows: Radioligand binding, dopamine D3 ([3H]spiperone). The following applies: Table 4; [3H]spiperone 1 nM; read-out: Binding affinity, IC50 (nM) D3. Summed up:
as §1

The target of data set [20] is T9, 5-HT2a (Homo sapiens, UniProt P28223).
T9 construct: purchased Euroscreen/BioSignal Packard Inc
The data set is described as follows: Radioligand binding, 5-HT2a ([3H]Ketanserin). Conditions: Table 4; [3H]Ketanserin 1 nM; read-out: Binding affinity, IC50 (nM) 5-HT2a.

T1 sequence (P50406 whole entry): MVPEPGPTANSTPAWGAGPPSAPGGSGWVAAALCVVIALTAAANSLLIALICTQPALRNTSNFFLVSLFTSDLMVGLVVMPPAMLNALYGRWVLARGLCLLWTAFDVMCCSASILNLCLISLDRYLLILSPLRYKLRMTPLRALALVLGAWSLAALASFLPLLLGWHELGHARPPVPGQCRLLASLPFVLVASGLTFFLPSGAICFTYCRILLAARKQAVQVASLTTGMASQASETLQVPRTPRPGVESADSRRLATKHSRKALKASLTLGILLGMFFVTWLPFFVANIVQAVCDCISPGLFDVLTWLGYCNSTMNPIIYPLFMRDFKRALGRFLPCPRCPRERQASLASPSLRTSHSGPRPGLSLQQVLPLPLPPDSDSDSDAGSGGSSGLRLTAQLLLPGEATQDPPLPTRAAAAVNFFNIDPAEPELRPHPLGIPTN
T7 sequence (P50406 whole entry): as above
T2 sequence (P14416 whole entry): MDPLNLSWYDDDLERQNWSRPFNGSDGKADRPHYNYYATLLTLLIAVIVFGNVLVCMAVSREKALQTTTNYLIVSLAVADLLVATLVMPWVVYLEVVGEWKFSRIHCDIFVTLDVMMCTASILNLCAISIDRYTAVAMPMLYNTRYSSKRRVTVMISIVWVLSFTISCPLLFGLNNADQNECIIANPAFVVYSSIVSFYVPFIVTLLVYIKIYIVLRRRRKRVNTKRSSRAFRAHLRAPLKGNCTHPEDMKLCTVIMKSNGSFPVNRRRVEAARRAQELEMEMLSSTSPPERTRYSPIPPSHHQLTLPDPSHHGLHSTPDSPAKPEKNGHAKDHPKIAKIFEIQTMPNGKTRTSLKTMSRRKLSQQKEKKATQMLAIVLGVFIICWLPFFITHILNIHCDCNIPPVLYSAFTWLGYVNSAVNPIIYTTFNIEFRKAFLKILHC
T6 sequence (P34969 whole entry): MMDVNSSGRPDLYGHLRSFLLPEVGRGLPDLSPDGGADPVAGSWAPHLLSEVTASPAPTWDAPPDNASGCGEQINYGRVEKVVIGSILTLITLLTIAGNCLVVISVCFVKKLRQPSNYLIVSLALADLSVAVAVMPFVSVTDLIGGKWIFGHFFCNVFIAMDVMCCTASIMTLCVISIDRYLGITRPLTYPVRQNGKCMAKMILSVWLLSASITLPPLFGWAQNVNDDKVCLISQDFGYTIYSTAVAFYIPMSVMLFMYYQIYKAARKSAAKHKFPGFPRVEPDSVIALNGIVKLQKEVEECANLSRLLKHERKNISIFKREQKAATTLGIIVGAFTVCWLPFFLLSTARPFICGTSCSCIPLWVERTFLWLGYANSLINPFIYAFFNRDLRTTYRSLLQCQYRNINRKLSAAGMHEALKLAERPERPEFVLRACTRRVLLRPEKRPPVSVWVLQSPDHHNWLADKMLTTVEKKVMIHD
Chain of D1 (P21728 whole entry): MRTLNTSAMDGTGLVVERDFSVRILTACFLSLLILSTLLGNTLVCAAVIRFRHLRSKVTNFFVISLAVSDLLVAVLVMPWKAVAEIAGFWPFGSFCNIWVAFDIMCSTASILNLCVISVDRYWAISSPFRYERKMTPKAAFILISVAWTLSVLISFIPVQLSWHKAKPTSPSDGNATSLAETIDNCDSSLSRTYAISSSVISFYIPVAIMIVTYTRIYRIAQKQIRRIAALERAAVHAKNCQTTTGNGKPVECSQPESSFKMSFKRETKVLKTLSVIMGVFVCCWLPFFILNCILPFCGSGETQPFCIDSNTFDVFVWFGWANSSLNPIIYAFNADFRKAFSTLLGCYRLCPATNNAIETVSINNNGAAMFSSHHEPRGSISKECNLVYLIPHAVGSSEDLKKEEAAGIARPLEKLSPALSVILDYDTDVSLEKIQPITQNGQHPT
T8 sequence (P35462 whole entry): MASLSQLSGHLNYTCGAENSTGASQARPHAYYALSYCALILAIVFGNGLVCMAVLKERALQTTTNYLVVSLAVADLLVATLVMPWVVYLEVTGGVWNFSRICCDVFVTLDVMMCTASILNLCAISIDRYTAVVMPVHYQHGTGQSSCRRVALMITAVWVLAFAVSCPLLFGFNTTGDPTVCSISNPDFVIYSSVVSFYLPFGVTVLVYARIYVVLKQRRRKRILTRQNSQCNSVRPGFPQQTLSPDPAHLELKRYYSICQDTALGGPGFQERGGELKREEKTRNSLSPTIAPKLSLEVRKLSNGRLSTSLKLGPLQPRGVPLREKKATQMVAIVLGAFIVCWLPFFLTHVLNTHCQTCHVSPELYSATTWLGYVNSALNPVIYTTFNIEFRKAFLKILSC
T9 sequence (P28223 whole entry): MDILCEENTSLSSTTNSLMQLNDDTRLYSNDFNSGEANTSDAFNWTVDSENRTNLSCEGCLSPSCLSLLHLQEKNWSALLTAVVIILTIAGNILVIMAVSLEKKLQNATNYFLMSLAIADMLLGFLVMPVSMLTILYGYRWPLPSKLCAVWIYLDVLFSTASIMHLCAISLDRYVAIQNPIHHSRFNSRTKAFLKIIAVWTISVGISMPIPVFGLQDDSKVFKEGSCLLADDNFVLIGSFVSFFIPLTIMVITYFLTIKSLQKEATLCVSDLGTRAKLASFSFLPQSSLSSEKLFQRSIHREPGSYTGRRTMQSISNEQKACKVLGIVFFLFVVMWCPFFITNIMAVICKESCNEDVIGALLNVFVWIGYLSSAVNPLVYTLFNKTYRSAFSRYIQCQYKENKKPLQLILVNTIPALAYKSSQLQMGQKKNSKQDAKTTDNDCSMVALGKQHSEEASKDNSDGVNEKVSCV

As a reminder, the Ki is a measure of affinity in units of concentration, obtained from inhibition or displacement. For `CNc1cc(NS(=O)(=O)c2ccc(N)cc2)cc(NC)n1` [Ro 63-0563], in data set [1], the Ki is 0.012 µM.

On to `COc1ccc2c(c1)c(CCN(C)C)cn2S(=O)(=O)c1ccccc1` [MS-245], for which, in [2], the “pA2, antagonist” value is recorded as 8.88.

As usually defined, the IC50 is the concentration at which inhibition is half-maximal. As for SB-271046 [reference compound], in [3] (background literature), the oral bioavailability was over 80%. Besides, in [4], the extracellular glutamate levels entry is “increased extracellular glutamate levels in frontal cortex and dorsal hippocampus by several fold”. The IC50 in data set [5] was over 10000 nM; in [6] it was 3960 nM; in [8], over 10000 nM. For the same compound, the “retention of a previously learned task” value in data set [7] was “significant improvement”. For the same compound, in data set [9], the anticonvulsant activity entry is “possess anticonvulsant activity”. Moreover, in [10] (administered 30 min before methamphetamine), the “mean startle amplitude compared with methamphetamine group” value is “no significant differences”. Moreover, the “disruption of PPI by methamphetamine, effect of pretreatment” value in data set [10] (rats, i.p., 30 min before methamphetamine (3, i.p.), P<0.05) is “reversed significantly”.

Turning to `CNc1cc(NS(=O)(=O)c2ccc(N)cc2)nc(NC)n1` [Ro 04-6790], the food intake entry in data set [11] is reported as “decreased food intake”. The anticonvulsant activity result in data set [9] was “possess anticonvulsant activity”. Moreover, the “induction of behavior of yawning, stretching, and chewing” value in [12] is “capable of inducing this same effect”.

As to `COc1ccc(S(=O)(=O)Nc2cc(Br)cc(F)c2Br)cc1N1CCNCC1` [SB-357134], in [3] (in vivo), the “clearance and bioavailability, in words” value is “low clearance rate and excellent oral bioavailability”. For the same compound, the “retention of a previously learned task” value in [7] was “significant improvement”. Also, the seizure threshold result in data set [9] (rat maximal electroseizure threshold, oral administration) was “potent and dose-dependent increase”.

As for `CN(C)CC/C=C1/c2ccccc2Sc2ccc(Cl)cc21` [chlorprothixene], in data set [1], the “affinity at 5-HT6 receptors, in words” value was “bind with high affinity”.

For `CN(C)CCCN1c2ccccc2Sc2ccc(Cl)cc21` [chlorpromazine], the “affinity at 5-HT6 receptors, in words” value in data set [1] is given as “bind with high affinity”.

One may read the TD50 as the 50% point of the dose-response relation for the toxic effect studied. In general, melting point refers to the temperature, or range, at which the solid turns liquid. Compound `COc1ccc(C2(C)C(=O)c3c(N4CCN(C)CC4)cc(Cl)cc3N(Cc3cccc(N)c3)C2=O)cc1` (stereo not shown) [Example 9, 1-(3-Amino-benzyl)-7-chloro-3-(4-methoxy-phenyl)-3-methyl-5-(4-methyl-piperazin-1-yl)-1H-quinoline-2,4-dione] yielded a melting point of 90 to 93 °C. Besides, the concentration for half-maximal inhibition (IC50) in data set [13] is over 10000 nM. In addition, in [14], the TD50 at 120 min is over 400 mg/kg. The “Rotarod deficit (%)” value in [15] (200 p.o. (dose unit not given)) is 0%. Also, in [15] (300 p.o. (dose unit not given)), the “Rotarod deficit (%)” value worked out at 0%. Besides, the “Rotarod deficit (%)” value in data set [15] (400 p.o. (dose unit not given)) is recorded as 0%. Further, the 50% inhibitory concentration (IC50) in [16] was over 10000 nM. Further, the IC50 in data set [5] is over 10000 nM. Also, in data set [6], the IC50 was over 10000 nM. For the same compound, the IC50 in data set [17] was over 10000 nM. Also, the IC50 in data set [18] (Table 2, 1.87 nM [3H]LSD, 37 C, 60 min, read-out: IC50 (nM), binding affinity to the 5-HT6 receptor) worked out at 5.2 nM. In addition, the IC50 in [18] (Table 4, read-out: Binding affinity, IC50 (nM) 5-HT6) came out at 5.2 nM. Besides, the IC50 in [8] is over 10000 nM. Also, the IC50 in [19] was determined as 821 nM. In data set [20], the IC50 is over 10000 nM.
